Measurements: publication PMC6414531, “Contrasting in vitro and in vivo methanol oxidation activities of lanthanide-dependent alcohol dehydrogenases XoxF1 and ExaF from Methylobacterium extorquens AM1” (Scientific Reports, 2019)

How the values were obtained:
[1] = target: T1, ExaF (ExaF-La, Ln-dependent ethanol dehydrogenase) (Methylorubrum extorquens, UniProt C5AXV8); test: PMS-mediated DCPIP reduction in cell-free extract; format: biochemical; settings: MDH-3 mutant strain (lacks MxaF, XoxF1, XoxF2), grown with methanol and La3+
T1 construct: native enzyme in cell-free extract of MDH-3 mutant grown with methanol and La3+
T1 sequence (C5AXV8 27-587): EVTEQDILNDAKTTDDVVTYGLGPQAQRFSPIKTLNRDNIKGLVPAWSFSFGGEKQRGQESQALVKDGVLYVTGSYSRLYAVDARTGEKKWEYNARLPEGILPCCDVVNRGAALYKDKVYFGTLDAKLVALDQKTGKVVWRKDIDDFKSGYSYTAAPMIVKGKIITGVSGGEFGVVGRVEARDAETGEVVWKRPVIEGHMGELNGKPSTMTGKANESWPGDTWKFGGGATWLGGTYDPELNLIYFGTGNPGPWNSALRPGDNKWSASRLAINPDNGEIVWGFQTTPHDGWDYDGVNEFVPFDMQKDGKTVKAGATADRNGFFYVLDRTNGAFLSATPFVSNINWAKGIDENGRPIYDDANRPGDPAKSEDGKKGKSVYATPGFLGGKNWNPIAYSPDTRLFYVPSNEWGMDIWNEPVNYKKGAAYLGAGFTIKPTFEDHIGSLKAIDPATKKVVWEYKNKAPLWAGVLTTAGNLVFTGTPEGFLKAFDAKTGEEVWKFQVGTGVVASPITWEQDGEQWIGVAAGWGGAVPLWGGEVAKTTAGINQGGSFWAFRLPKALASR

XoxF1 MDH (XoxF1-La) [2] = target: T2, XoxF1 MDH (XoxF1-La) (Methylorubrum extorquens, UniProt C5B120); test: PMS-mediated DCPIP reduction at […] nm, Michaelis-Menten fit; format: biochemical; settings: La3+-loaded enzyme (1:1), PQQ; PMS/DCPIP as electron acceptors
T2 construct: C-terminal hexahistidine tag with rTEV site, tag cleaved; 1:1 La3+ per protomer, PQQ-containing
T2 sequence (C5B120 22-601): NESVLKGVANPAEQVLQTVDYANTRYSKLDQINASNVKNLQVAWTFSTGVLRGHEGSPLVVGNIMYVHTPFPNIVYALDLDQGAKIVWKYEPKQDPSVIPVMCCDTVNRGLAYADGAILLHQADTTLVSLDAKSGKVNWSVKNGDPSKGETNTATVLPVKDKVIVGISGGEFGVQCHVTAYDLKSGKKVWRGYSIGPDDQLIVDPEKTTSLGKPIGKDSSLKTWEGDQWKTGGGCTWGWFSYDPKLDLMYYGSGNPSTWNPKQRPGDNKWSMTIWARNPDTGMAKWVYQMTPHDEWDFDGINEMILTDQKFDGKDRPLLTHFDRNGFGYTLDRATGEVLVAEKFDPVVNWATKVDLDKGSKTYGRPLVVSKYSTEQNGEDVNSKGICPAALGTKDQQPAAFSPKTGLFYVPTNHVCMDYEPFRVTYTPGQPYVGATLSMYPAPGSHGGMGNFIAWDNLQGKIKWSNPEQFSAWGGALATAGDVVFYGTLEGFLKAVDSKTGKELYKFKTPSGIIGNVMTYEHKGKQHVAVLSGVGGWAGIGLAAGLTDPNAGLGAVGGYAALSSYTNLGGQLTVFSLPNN

XoxF1 MDH (XoxF1-La) [3] = target: T2, XoxF1 MDH (XoxF1-La); test: UV-visible spectroscopy of purified enzyme; format: binding; settings: co-purified prosthetic group
purified protein = substrate: CCO; test: purified protein; settings: La3+-loaded enzyme (1:1), PQQ; PMS/DCPIP as electron acceptors

Molecule: C=O [formaldehyde]
- specific activity [1]: confirming that ExaF can oxidize formaldehyde in vivo
- Km (XoxF1 MDH (XoxF1-La) [2]): 0.096 ± 0.006 mM

Molecule: CO [methanol]
- Km (XoxF1 MDH (XoxF1-La) [2]): 0.044 ± 0.005 mM

Molecule: O=C(O)c1cc(C(=O)O)c2c(n1)C(=O)C(=O)c1cc(C(=O)O)[nH]c1-2 [PQQ]
- molar ratio (XoxF1 MDH (XoxF1-La) [3]): PQQ was detected as a prosthetic group via UV-visible spectroscopy

B1: XoxF1 MDH (XoxF1-La) (Methylorubrum extorquens AM1) (protein)
chain: T2 sequence (C5B120 22-601)
- Km (purified protein): 67 ± 3 µM
- Vmax (purified protein): 6.21 µmol/min/mg
- kcat/Km (purified protein): 194000 M⁻¹ s⁻¹
